Laboratory results published in paper PMC3118832 (Clinical Therapeutics, 2011).
Where two headings read alike, the source gives them in different places.

What was measured:
[1] = cited from earlier work; for enzymatic autoinduction: administered continuously over several days; for CL/F / Vd/F / t1/2: healthy Vietnamese male volunteers, single oral administration, mean
[2] = clinical; conditions: human, in vivo
Protocol: The study was conducted at HTD-HCMC. The clinical trial protocol was reviewed and supported by the internal Scientific and Ethical Committee of the HTD-HCMC and Oxford Tropical Research Ethics Committee (OxTREC 019-06), University of Oxford, Oxford, United Kingdom. The volunteers were randomly assigned to 1 of the 24 possible sequences for the 4 treatment groups (Table I). […] A fixed tablet combination of piperaquine and the reference Vietnamese formulation is not commercially available and could not be included in this trial.
Study drug was administered with 200 mL of drinking water after an overnight fast of >10 hours, according to US Food and Drug Administration (FDA) guidelines for bioequivalence studies.[30] The volunteers were asked to continue fasting for 2 hours after drug administration. Beverages containing caffeine or alcohol were not allowed on days of drug administration and blood sampling. […] Tolerability was assessed daily by the clinician during each study occasion (using an adverse-event report form) and at the follow-up visit 1 week after last study occasion (using an adverse-event report form and laboratory assessment). Adverse events were accessed by using an open question about potential health problems during the study and followed up with a questionnaire if any health problems had occurred since the last consultation.
An intravenous indwelling cannula was introduced and maintained in the antecubital vein and kept for 12 hours during blood sample collection at each study visit. A blood volume of 0.5 mL was discarded before sample collection to avoid drug dilution effects. A5-mL blood sample was drawn into lithium heparin tubes (Hong Thien My Medical Equipment Joint Stock Co., Ho Chi Minh City, Vietnam) before drug administration (predose) and at the following times after drug administration (postdose): 0.25, 0.5, 1, 1.5, 2, 2.5, 3, 4, 5, 6, 7, 8, 10, and 12 hours. The same time schedule was followed for all study visits. Saline solution (0.9% sodium chloride, 2 mL) was used to flush the lines after blood collection. Blood samples were immediately centrifuged at 3000g for 10 minutes at 20°C. Plasma were transferred to cryotubes within 10 minutes after centrifugation and stored directly at –70°C. All samples were freighted to Thailand on dry ice and analyzed by the Clinical Pharmacology Laboratory at Mahidol–Oxford Tropical Medicine Research Unit (Bangkok, Thailand).
The LC-MS/MS system consisted of an Agilent 1200 LC system including an autosampler set at 4°C and a column oven set at 40°C (Agilent Technologies Inc., Santa Clara, California) coupled with an API 5000 triple quadrupole mass spectrometer (Applied Biosystems/MDS SCIEX, Foster City, California). The lower limit of quantitation was set to 1.03 ng/mL, with a limit of detection of 0.257 ng/mL. […] Three independent quality-control samples in plasma (2.89, 40.7, and 571 ng/mL) were prepared fresh and analyzed in triplicate in each batch of extracted plasma samples. All samples were kept on ice until loaded onto the solid-phase extraction plate. The extracted samples were injected directly (5 μL) into the LC-MS/MS system.
AUC0–last values were calculated using the linear trapezoidal method for ascending concentrations and the logarithmic trapezoidal method for descending concentrations.[33] […] Cmax and Tmax concentrations were taken directly from the observed data. Vd/F and CL/F were computed individually according to standard procedures and summarized for each treatment group. […]

[3] = Tolerability: adverse-event reports and laboratory assessment at follow-up; assay type: in vivo, human
Protocol: Fifteen healthy Vietnamese male volunteers aged 18 to 55 years were enrolled in the study. No female subjects were enrolled to avoid potential risks of adverse effects on the fetus during early pregnancy. The study design and potential adverse drug effects were explained to all volunteers in their own language before initiation of any study-related procedures. Volunteers who provided written informed consent were considered for enrollment. Clinical and laboratory screenings were performed at the Hospital for Tropical Diseases in Ho Chi Minh City (HTD-HCMC), Vietnam, and the results evaluated before enrollment. Clinical evaluation and laboratory assessment (full hematology and biochemistry) were also performed at follow-up 1 week after the last study visit.

[4] = posttreatment (follow-up 1 week after last visit), mean (SD)

## CO[C@H]1O[C@@H]2O[C@@]3(C)CC[C@H]4[C@H](C)CC[C@@H]([C@H]1C)[C@@]24OO3 [artemether]
[1]
  enzymatic autoinduction: marked ability for enzymatic autoinduction

## C[C@@H]1CC[C@H]2[C@@H](C)C(=O)O[C@@H]3O[C@@]4(C)CC[C@@H]1[C@]32OO4 [artemisinin]
[2]; po
  oral clearance in smokers compared with nonsmokers: significantly higher
[2]; male
  CL/F: 121 mL/min/kg
  Vd: 1320 L
  Vd/F: 22.8 L/kg
  half-life: 2.23 h
[3]; 15 healthy volunteers, single oral doses
  tolerability / adverse events: no adverse events were reported
[3]; levels still in the normal range
  volunteers with higher aspartate aminotransferase at follow-up compared with baseline: Six of the 15
[3]; posttreatment (follow-up 1 week after last of 4 single-dose visits), mean (SD)
  Urea: 5.36 (1.5) [2.4–7.2] mM
[3]; [4]
  ALT: 44.7 (25) [15–120] U/L
  AST: 29.1 (16) [19–80] U/L
  Albumin: 39.7 (4.2) [30–46] g/L
  Basophils: 1.12 (0.49) [0.23–2.1] %
  Eosinophils: 5.34 (3.2) [1.6–13] %
  Erythrocytes: 5.23 (0.49) [4.6–6.1] 10^12/L
  Ferritin: 117 (36) [69–190] μg/L
  Globulin: 37.7 (6.5) [30–47] g/L
  Glucose: 3.91 (0.35) [3.5–4.4] mM
  Hematocrit: 47.7 (2.5) [45–53] %
  Hemoglobin: 15.6 (0.78) [15–18] g/dL
  Leukocytes: 7.62 (1.5) [5.4–10] 10^9/L
  Lymphocytes: 32.5 (6.2) [21–43] %
  Magnesium: 0.896 (0.17) [0.70–1.1] mM
  Monocytes: 7.47 (1.4) [5.3–10] %
  Neutrophils: 53.7 (6.5) [45–63] %
  Reticulocytes: 0.700 (0.34) [0.10–1.5] %
  Thrombocytes: 258 (59) [130–330] 10^9/L
  Total bilirubin: 16.1 (4.0) [9.0–20] μM
  Total protein: 77.3 (5.1) [67–82] g/L
[1]; ref 31
  CL/F: 127 mL/min/kg
  Vd/F: 35.9 L/kg
  t1/2: 2.10 h
[1]; ref 35
  CL/F: 85 mL/min/kg
  Vd/F: 19.4 L/kg
  t1/2: 2.59 h
[1]; ref 36
  CL/F: 89.7 mL/min/kg
  Vd/F: 16.4 L/kg
  t1/2: 2.51 h
[1]; in vivo
  bioavailability: < 30%

## C[C@H]1[C@@H](O)O[C@@H]2O[C@@]3(C)CC[C@H]4[C@H](C)CC[C@@H]1[C@@]24OO3 [dihydroartemisinin]
[1]
  enzymatic autoinduction: not
